Source: US8841271B2, “Oligonucleotide complex compositions and methods of use as gene alteration tools” (The General Hospital Corporation, priority 2004, dated 2014)
“And” between values parts separate entries of the source, which are not always exact repeats. Equal entries are not always repeated. “Also recorded” adds a separate entry of the source. In the oligonucleotide strings, read from the 5' end, every base follows the letter of its sugar. An asterisk marks phosphorothioate; unmarked linkages are phosphodiester. Other units and linkages are bracketed, terminal groups are in braces. A string of capitals states the bases alone. m = 2'-O-methyl; r = 2'-OH (RNA); {P} = phosphate

What was measured:
[1] = tested on: Δ508CFTR expressing cells; assay: Whole-cell patch clamp, cAMP-activated whole cell currents; assay type: cell-based, mouse
Protocol: (§1) Mouse mammary carcinoma cells (c127i) transfected with human epithelial CFTR wild type (WT1) or Δ508 CFTR cells [Cannello et al., (1994), J. Biol. Chem. 269, 11224-11232; Dechecchi et al., (1993) J. Biol. Chem. 268, 11321-11325] were used for these studies. The transfected c127i cells are high level producers of Δ508 CFTR mRNA. Cells were grown and maintained in Dulbecco's medium (DMEM), supplemented with 10% fetal bovine serum and 1% L-glutamine, as previously reported [Verkman, (1990) Am. J. Physiol. 259, C375-C388].
(§2) Whole-cell and excised inside-out patches were obtained to assess cAMP-PKA dependent anion currents in treated Δ508 cells. Currents and command voltages were obtained and driven. respectively, with a Dagan 3900 amplifier using a 1 gigaohm headstage. The excised patch-clamp configuration was carried out as previously described [Reisin et al., (1994) J. Biol. Chem. 269, 20584-20591]. Single channel data were obtained between ±100 mV in symmetrical Cl^−. Data were further analyzed as previously described [Reisin et al., (1994) J. Biol. Chem. 269, 20584-20591]. The pipette and bathing solution contained, in mmol/L, either: NaCl 140, MgCl2 1.0, KCl 5, and N-2-hydroxyethylpiperazine N′-2-ethanesulfonic acid (HEPES) 10, at pH 7.4, or MgCl2 70, HEPES 10, pH 7.4. The bathing solution also contained 1.0 mmol/L CaCl2. Whenever indicated, the patch-pipette was filled up to at least one third of its height with either MgATP or TrisATP (100 mmol/L, pH 7.4 adjusted with N-methyl-glucamine) as previously reported [Reisin et al., (1994) J. Biol. Chem. 269, 20584-20591]. Experiments were conducted at room temperature. The cAMP stimulatory mixture contained 8-Br-cAMP, isobutyl-methyl-xanthine (IBMX) and forskolin. Final concentrations were 500 μmol/L, […], and 10 μmol/L, respectively. The catalytic subunit of PKA was used at a final concentration of 20 μg/ml. The Cl^− channel blocker, diphenylamine-2-carboxylate (DPC) was kept in a 100-fold stock solution (20 mmol/L) in 50% water/ethanol. DPC was used at a final concentration of 500 μM.
To restore the normal (wild type) phenotype in cells expressing Δ508CFTR, modified oligonucleotides were constructed and their effect on ion transport was assessed in Δ508 cells treated with these constructs. In a first step, a modified oligodeoxyribonucleotide was synthesized, containing phosphorothioate (PS) and PS plus 2′-O-methyl modifications for the central and flanking segments, respectively. This oligonucleotide was designed to hybridize in Watson-Crick base complementarity to the region of Δ508 mRNA where the PS section would be directly opposite the Δ508 mRNA position, flanked 3′- and 5′- by adjacent nucleotides complementary to the Δ508 mRNA. Accordingly, the PS segment would activate endogenous RNase H, and cleave those bases opposite the PS complementary oligonucleotide (10 μM). The insertion of bases then occurs in a second step.
For the second or insertion step, two complementary single strand oligonucleotides, CF4 and CF6 (Table 1, Scheme 1A) were constructed. The annealed CF4/CF6 duplex (10 μM final concentration) was added to the Δ508 CFTR cells after 2 hours incubation, then washout, in the deletion step. Next, following overnight or up to 72 hour incubation in the second (insertion) step, patch clamp examination was conducted on the treated cells.

[2] = tested on: Δ508CFTR expressing cells; assay: Single channel currents in excised inside-out patches (PKA and ATP activation); assay type: cell-based, mouse; conditions: treated Δ508 cells
Protocol: as §1
Whole-cell and excised inside-out patches were obtained to assess cAMP-PKA dependent anion currents in treated Δ508 cells. Currents and command voltages were obtained and driven. respectively, with a Dagan 3900 amplifier using a 1 gigaohm headstage. The excised patch-clamp configuration was carried out as previously described [Reisin et al., (1994) J. Biol. Chem. 269, 20584-20591]. Single channel data were obtained between ±100 mV in symmetrical Cl^−. Data were further analyzed as previously described [Reisin et al., (1994) J. Biol. Chem. 269, 20584-20591]. The pipette and bathing solution contained, in mmol/L, either: NaCl 140, MgCl2 1.0, KCl 5, and N-2-hydroxyethylpiperazine N′-2-ethanesulfonic acid (HEPES) 10, at pH 7.4, or MgCl2 70, HEPES 10, pH 7.4. The bathing solution also contained 1.0 mmol/L CaCl2. […]

[3] = tested on: Δ508 cells; assay: SPQ fluorescence assay of cAMP-stimulated Cl- transport; assay type: cell-based, mouse; conditions: CF4/CF6 treated Δ508 cells compared with WT1 cells; control Δ508 cells no change
Protocol: as §1
Cyclic-AMP-stimulated CY transport was also followed by fluorescence changes of cells loaded with the CY sensitive dye 6-methoxy-N-(3-sulfopropyl)quinolinium (SPQ) [Verkman, (1990) Am. J. Physiol. 259, C375-C388]. Briefly, cells were grown to partial confluence on glass coverslips. […] SPQ fluorescence was determined under an oil immersion X20 objective in a Nikon E-800 fluorescence microscope (Tokyo, Japan), with an UV filter (96101C UV-2E/C). […] Pictures were analyzed digitally with the NIH Image 1.62b7 software. SPQ cytoplasmic fluorescence values were normalized between intra-nuclear (considered as zero quenching, i.e. low Cl^−), and extracellular background. Data were expressed as percent fluorescence with respect to time zero, the time when cells were placed in an isotonic saline solution. […]

[4] = tested on: Δ508 CFTR mRNA; assay: RT-PCR, subcloning and sequencing of CFTR mRNA; assay type: cell-based, human; conditions: mRNA from CF4/CF6 treated Δ508 cells (10 μM), subcloned RT-PCR products
Protocol: Total RNA isolated by Trizol® reagent according to the manufacturer's protocol (Invitrogen, CA) from either WT1 or Δ508 cells treated with or without CF6/CF4 annealed duplex oligonucleotides (final concentration of duplex in reaction mixture 10 μM) was used to perform the RT-PCR assay [Kleppe et al., (1971) J. Mol. Biol. 56, 341-361] in two steps by using a ThermoScript RT-PCR system (GIBCO, BRL). Several sets of primers were used (see CF Table 1). In the first step, total RNA (˜2 μg) was incubated for […] at 55° C. with amplification refractory mutation system (ARMS) [Ferric et al., (1992) Am. J. Hum. Genet. 51, 251-262] reverse mutant (M1) and normal (N1) primers (0.5 μg each) separately for the first-strand synthesis. In a second step, after heating at 94° C. for 5 mM, 35 cycles of PCR were carried out on the samples. PCR cycles were performed first by denaturation at 94° C. for 2 mM, annealing at 62° C. for 1 min, and extension at 72° C. for 2 min, followed by a final extension for 10 mM at 72° C. Two ARMS reverse primers (N1 and M1) [Ferric et al., (1992) Am. J. Hum. Genet. 51, 251-262], and a forward (F1) primer were used (Table 1). Similarly RT-PCR was performed with ARMS PS reverse primer (SCFR) and PS forward primer (SNF1, Table 1). RT-PCR products were separated in 3% agarose gel and subjected to automated DNA sequence analysis. […]

[5] = tested on: DNA genome of Δ508 cells; assay: RT-PCR analysis of DNA from subcloned treated Δ508 cells; assay type: cell-based; conditions: subcloned Δ508 cells originally treated with CF4/CF6
Protocol: (§3) Without being limited by any particular mechanism, the hypothesis was tested as to whether base insertion in the treated Δ508 cells has occurred at the RNA level. It was possible that the repair mechanism was carried out instead of/or in addition to, the DNA level, by way of reverse transcription extending back to the genome. This was tested by RT-PCR analysis of DNA from subcloned Δ508 cells originally treated with CF4/CF6. No evidence was obtained that the restored phenotype was carried back to the inheritable DNA genome level was obtained. Western blot analysis was conducted with antibodies targeted to epitopes upstream and downstream of the Δ508 deletion, respectively.

[6] = tested on: CFTR protein; assay: Western blot with antibodies to epitopes upstream and downstream of the Δ508 deletion; assay type: cell-based, human; conditions: both antibodies same level of protein, no truncated or degraded peptides
Protocol: as §3

[7] = tested on: CFTR; assay: DPC block of cAMP-activated whole cell currents in treated Δ508 cells; assay type: cell-based, human; conditions: DPC 500 μM
Protocol: as §2, with “The Cl^− channel blocker, diphenylamine-2-carboxylate (DPC) was kept in a 100-fold stock solution (20 mmol/L) in 50% water/ethanol. DPC was used at a final concentration of 500 μM.” left out

[8] = two step treated Δ508 cells, n=24

Molecule: CF4/CF6: 2′-O-methyl RNA/unmodified RNA oligonucleotide duplex of CF4 (SEQ ID NO: 1) and CF6 (SEQ ID NO: 2) (chain 1 mAmUmCmAmUmAmGmGmAmAmAmCmAmCmCmAmAmAmGmAmUmGmAmUmAmUmUmUmUmCmUmUmU; chain 2 {P}-rCrArUrCrUrUrUrGrGrUrG-{P}; listed as Homo sapiens)
- time to restoration of CFTR channel function ([1]; CF4/CF6 duplex added to Δ508 cells in tissue culture, patch clamping and SPQ quenching): 8 to 18 h
- whole-cell currents in the absence of cAMP stimulation ([1]; CF4/CF6 treated cells, data not shown): sporadically showed large, DPC inhibitable whole-cell currents
- cAMP-activated whole cell conductance ([1]; CF4/CF6 treated Δ508 cells, FIG. 1, untreated Δ508 cells lacked it): robust cAMP response
- persistence of restored CFTR function ([1]; after cell replication and washing out of the oligonucleotide after a few days incubation): restoration of CFTR function was lost
- phenotypic reversion by patch clamp ([1]; one step: CF4/CF6 duplex added without first oligonucleotide treatment step): phenotypic reversion was likewise found
- increase of whole cell currents after cAMP stimulation ([1]; two step treated Δ508 cells (PS oligonucleotide 10 μM 2 h, washout, then CF4/CF6 10 μM overnight to 72 h), n=24, p<0.01): 243%
- whole cell conductance after cAMP stimulation [1, 8]: 2.98±0.68 nS/Cell
- whole cell conductance before cAMP stimulation [1, 8]: 0.87±0.16 nS/Cell
- single channel conductance of PKA-activated Cl- channels ([2]; excised inside-out patches): 10-12 pS and 12 pS
- treated cells displaying PKA and ATP activated Cl- channels ([2]; control Δ508 cells 0/24): 10/12
- change in SPQ fluorescence in response to cAMP stimulation [3]: comparably similar change in SPQ fluorescence
- UGU insertion in Δ508 mRNA (percentage of subclones showing TGT insertion) [4]: 20-30%
- restored phenotype carried back to the inheritable DNA genome level [5]: No evidence
- CFTR protein made in the presence of the oligonucleotides [6]: full-length protein was made; also recorded: does not act as an inhibitor of protein synthesis

Molecule: O=C(O)c1ccccc1Nc1ccccc1 [DPC, diphenylamine-2-carboxylate]
- effect on cAMP-activated currents ([7]; CF4/CF6 treated Δ508 cells, FIG. 1): inhibited
- inhibition of cAMP-activated currents ([7]; two step treated Δ508 cells): > 84%
